Test results published in patent US9249128B2 (priority 2010, dated 2016).
Where two headings read alike, the source gives them in different places.

Legend:
KIAA1363 [1] = biological target: T1, KIAA1363 (Mus musculus, UniProt Q8BLF1); test: Gel-based competitive ABPP of KIAA1363 in mouse brain membrane proteome (FP-rhodamine); format: biochemical
T1 construct: ABPP analysis of KIAA1363 activity in mouse brain membrane proteome; from tissue; host or cells: mouse brain (membrane fraction)
T1 sequence (Q8BLF1 1-408): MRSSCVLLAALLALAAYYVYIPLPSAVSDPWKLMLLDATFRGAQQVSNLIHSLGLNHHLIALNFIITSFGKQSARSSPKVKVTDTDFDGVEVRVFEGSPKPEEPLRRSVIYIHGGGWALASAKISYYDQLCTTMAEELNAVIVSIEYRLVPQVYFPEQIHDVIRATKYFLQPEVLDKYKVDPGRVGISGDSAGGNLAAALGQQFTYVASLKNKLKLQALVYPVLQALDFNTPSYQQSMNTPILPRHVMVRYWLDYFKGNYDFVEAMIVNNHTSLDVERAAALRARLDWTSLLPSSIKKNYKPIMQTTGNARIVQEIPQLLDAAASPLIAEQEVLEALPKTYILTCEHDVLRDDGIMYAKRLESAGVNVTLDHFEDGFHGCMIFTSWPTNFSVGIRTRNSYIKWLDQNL
Experimental: In various embodiments, the invention provides a method of inhibiting a serine hydrolase, comprising contacting the hydrolase with a compound of formula (I), e.g., a compound selected from set of compounds shown in Table 1, below. […] IC50 values were derived from ABPP analysis of KIAA1363 activity in mouse brain membrane proteome and are averages of three replicates. Inhibitors were added to the proteome for 30 min before addition of FP-rhodamine (1 μM, 30 min).
(§1) Tissues were Dounce-homogenized in PBS, pH 7.4, followed by a low-speed spin (1,400 g, 5 min) to remove debris. The supernatant was then subjected to centrifugation (100,000×g, 45 min) to provide the cytosolic fraction in the supernatant and the unsoluble fraction as a pellet. The pellet was washed and resuspended in PBS buffer by sonication. Total protein concentration in each fraction was determined using a protein assay kit (Bio-Rad). Samples were stored at −80° C. until use.
(§2) For ABPP experiments, cell lysate and tissue proteomes were treated with 1 μM FP-rhodamine for 30 min at room temperature (50 μL total reaction volume) as described previously (Nomura et al., 2010). Reactions were quenched with one volume of standard 4×SDS/PAGE loading buffer (reducing), separated by SDS/PAGE (10% acrylamide), and visualized in-gel with a Hitachi FMBio IIe flatbed fluorescence scanner (MiraiBio). Inhibitors were preincubated prior (30 min or 4 h at 37° C. in vitro or in situ, respectively) to the addition of FP-rhodamine.

AChE = biological target: T2, AChE (Mus musculus, UniProt P21836); test: AChE activity assay with acetylthiocholine in mouse brain proteome; format: biochemical; settings: acetylthiocholine hydrolysis in mouse brain membrane proteome
T2 construct: 20 μg of cell lysate or mouse brain membrane proteome; from tissue; host or cells: mouse brain (membrane proteome)
T2 sequence (P21836 32-614): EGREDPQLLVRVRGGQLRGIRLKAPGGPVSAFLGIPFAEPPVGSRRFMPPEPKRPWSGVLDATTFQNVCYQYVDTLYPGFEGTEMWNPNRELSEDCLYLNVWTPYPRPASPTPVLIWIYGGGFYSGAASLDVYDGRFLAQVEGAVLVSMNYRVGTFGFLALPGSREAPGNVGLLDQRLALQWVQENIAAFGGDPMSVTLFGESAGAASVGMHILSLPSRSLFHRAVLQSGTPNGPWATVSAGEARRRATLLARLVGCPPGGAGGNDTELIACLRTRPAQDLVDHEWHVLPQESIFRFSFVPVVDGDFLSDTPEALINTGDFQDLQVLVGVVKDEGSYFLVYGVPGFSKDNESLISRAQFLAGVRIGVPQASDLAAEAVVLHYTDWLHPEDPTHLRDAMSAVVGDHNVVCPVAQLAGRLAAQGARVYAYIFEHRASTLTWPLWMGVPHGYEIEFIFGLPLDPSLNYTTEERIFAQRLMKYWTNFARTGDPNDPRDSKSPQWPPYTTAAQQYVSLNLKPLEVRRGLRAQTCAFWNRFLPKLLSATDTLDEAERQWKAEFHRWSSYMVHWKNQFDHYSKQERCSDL
Experimental: AChE activity was measured using a method similar to that described previously (Ellman et al., 1961). Briefly, 50 μL of 10 mM acetylthiocholine was added to 200 μL of PBS containing 2 mM DTNB and 20 μg of cell lysate or mouse brain membrane proteome. Absorbance was measured at 412 nm over 5 min, and the rate of product accumulation was calculated from the slope of the absorbance over time. For assays involving preincubation with inhibitors, the reactions were prepared without acetylthiocholine and JW480 was incubated at the indicated concentration for 30 min at 37° C. Acetylthiocholine was then added and the assay was carried out exactly as described above.

HSL = biological target: T3, HSL (Mus musculus, UniProt P54310); test: Competitive ABPP of HSL in rosiglitazone-differentiated 3T3-10T1/2 adipocyte proteome; format: biochemical
T3 construct: ABPP analysis of HSL from a rosiglitazone-differentiated 3T3-10T1/2 adipocyte proteome; endogenous in cells; host or cells: rosiglitazone-differentiated 3T3-10T1/2 adipocytes
T3 sequence (P54310 1-759): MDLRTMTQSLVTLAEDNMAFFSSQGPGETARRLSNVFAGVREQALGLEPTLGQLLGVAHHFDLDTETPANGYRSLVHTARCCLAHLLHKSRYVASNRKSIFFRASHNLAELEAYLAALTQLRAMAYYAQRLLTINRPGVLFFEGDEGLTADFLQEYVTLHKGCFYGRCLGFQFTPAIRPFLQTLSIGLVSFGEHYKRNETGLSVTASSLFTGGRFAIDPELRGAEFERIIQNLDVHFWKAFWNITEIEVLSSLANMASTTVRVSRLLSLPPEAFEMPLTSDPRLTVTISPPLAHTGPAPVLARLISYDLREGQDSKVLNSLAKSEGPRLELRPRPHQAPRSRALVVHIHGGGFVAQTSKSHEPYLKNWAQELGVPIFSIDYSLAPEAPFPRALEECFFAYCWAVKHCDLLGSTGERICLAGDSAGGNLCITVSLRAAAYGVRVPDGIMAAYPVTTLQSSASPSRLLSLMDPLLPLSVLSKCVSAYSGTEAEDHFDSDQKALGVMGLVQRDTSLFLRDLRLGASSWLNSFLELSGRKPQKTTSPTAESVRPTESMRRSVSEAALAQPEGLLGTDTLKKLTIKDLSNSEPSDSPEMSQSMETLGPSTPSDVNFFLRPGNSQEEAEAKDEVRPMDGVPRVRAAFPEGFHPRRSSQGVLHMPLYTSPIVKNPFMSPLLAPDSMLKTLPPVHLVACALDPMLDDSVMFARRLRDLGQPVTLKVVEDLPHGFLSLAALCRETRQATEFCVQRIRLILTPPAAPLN
Experimental: as §2

KIAA1363 [2] = biological target: T1, KIAA1363; test: In vivo labeling of KIAA1363 by JW576 in mouse heart (gel-based ABPP)
Experimental: (§3) For ABPP experiments, cell lysate and tissue proteomes were treated with 1 μM FP-rhodamine for 30 min at room temperature ([…]). Reactions were quenched with one volume of standard 4×SDS/PAGE loading buffer (reducing), separated by SDS/PAGE (10% acrylamide), and visualized in-gel with a Hitachi FMBio IIe flatbed fluorescence scanner (MiraiBio). For experiments involving a preincubation with JW576 in the presence or absence of the non-fluorescent competitor JW480, the reactions were prepared without FP-rhodamine. JW576 were added at the indicated concentration and incubated for the indicated time at 37° C. FP-rhodamine was then added and the reaction was carried out exactly as described above.
as §1, with “dounce-homogenized” for “Dounce-homogenized”, “7.5,” for “7.4,”, “(64,000 g,” for “(100,000×g,”, “membrane” for “unsoluble”
JW576 was prepared as a homogenoeus PEG solution by vortexing, sonicating, and gently heating neat compound directly into PEG300 (Fluka) (4 mg ml^−1 final concentration. Male C57BI/6J (<6 months old, 20-28 g) and Male KIAA1363-KO mice were treated with JW576 or a PEG vehicle by intraperitoneal injection. After the indicated amount of time, mice were anesthetized with isoflurane and killed by decapitation. Tissues were removed, flash frozen in liquid N2 and stored at −80° C. prior to processing for ABPP gel analysis as indicated above. Animal experiments were conducted in accordance with the guidelines of the institutional Animal Care and Use Committee of The Scripps Research Institute.

KIAA1363 [3] = biological target: T4, KIAA1363 (Homo sapiens, UniProt Q6PIU2); test: Gel-based competitive ABPP of living PC3 cells, in situ treatment; format: cell-based; parameters: PC3 cancer cells, which have high endogenous KIAA1363 levels; endogenous in cells; host or cells: PC3
T4 sequence (Q6PIU2 1-408): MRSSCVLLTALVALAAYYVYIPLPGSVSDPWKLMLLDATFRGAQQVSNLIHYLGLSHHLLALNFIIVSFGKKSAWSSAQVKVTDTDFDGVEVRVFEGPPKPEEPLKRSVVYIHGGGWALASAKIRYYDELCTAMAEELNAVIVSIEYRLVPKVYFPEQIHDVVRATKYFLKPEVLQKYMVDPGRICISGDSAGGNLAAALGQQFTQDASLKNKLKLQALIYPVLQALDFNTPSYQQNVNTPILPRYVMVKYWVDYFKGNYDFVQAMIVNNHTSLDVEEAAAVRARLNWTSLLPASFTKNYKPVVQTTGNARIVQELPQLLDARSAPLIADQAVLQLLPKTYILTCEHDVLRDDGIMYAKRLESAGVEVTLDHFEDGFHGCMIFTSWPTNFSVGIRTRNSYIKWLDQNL
Experimental: Inhibitors were dissolved in DMSO and diluted into media or buffer prior to cell or proteome treatment, respectively. For in vitro treatment, final DMSO concentration was 4%. For in situ treatments of cells for ABPP, lipid measurements, migration, cell-survival, and invasion assays, 2×10^6 cells were seeded in 6 cm dishes (˜100% confluency) 24 h prior to inhibitor pre-treatment (in DMSO at 0.1% final concentration) in serum-free media (3 mL) for the designated time before harvesting cells for ABPP or lipid measurements or before the initiation of migration, cell-survival, and invasion assays.
as §2
JW576 was dissolved in DMSO and diluted into media or buffer prior to cell or proteome treatment, respectively. For in vitro treatment, final DMSO concentration was 4%. For in situ treatments of cells for ABPP, 2×10^6 cells were seeded in 6 cm dishes (100% confluency) 24 hr prior to JW576 pretreatment with or without JW480 (in DMSO at 0.1% final concentration) in serum-free media (3 ml) for the designated time before harvesting cells for ABPP.
as §3

KIAA1363 [4] = biological target: T4, KIAA1363; test: 2-acetyl MAGE hydrolytic activity assay in cancer cells treated in situ; format: cell-based; parameters: PC3 cancer cells, which have high endogenous KIAA1363 levels; endogenous in cells; host or cells: PC3 (2-acetyl MAGE assay also DU145 and SKOV3)
Experimental: Cells were pretreated with KIAA1363 inhibitors in situ (for 4 hr in serum-free F-12K media before harvesting cells by scraping) or in vitro (for 30 min at 37° C. in PBS) before addition of 2-acetyl MAGE (100 μM) to cell lysates at room temperature for 30 min in a volume of 200 μL. Reactions were quenched with 600 μL 2:1 chloroform:methanol and 10 nmol of C12:0 MAGE internal standard was added. The organic layer was extracted and 30 μL injected into an Agilent 1100-MSD LC-MS. LC-MS settings were as previously described (Chiang et al., 2006). Product levels (C16:0 MAGE) were quantified in relation to the internal standard. Specific activity was determined during the linear phase of enzymatic reactions (i.e., less than 20% substrate utilized).
Cell lysates (20 μg) in Tris buffer were then incubated with lipid (100 mM, e.g., 2-acetyl MAGE for KIAA1363 activity) at room temperature for 30 min in a volume of 200 ml. Reactions were quenched with 600 ml 2:1 chloroform:methanol and 10 nmol of C12:0 MAGE internal standard was added. […] Product levels (C16:0 MAGE for KIAA1363 activity) were quantified in relation to internal standard levels and standard curves generated between varying lipid concentration versus constant internal standard levels. Specific activity was determined during the linear phase of enzymatic reactions (i.e., less than 20% substrate utilized)

KIAA1363 [5] = biological target: T4, KIAA1363; test: Inhibition of FP-rhodamine labeling of KIAA1363 by JW551 (FIG. 17); format: biochemical; settings: selective over other serine hydrolase enzymes

Cc1ccc2ccccc2c1OC(=O)NCCc1ccc2ccccc2c1 [JW440, 2-methylnaphthalen-1-yl (2-(naphthalen-2-yl)ethyl)carbamate]
IC50 (KIAA1363 [1]; mouse brain membrane proteome, inhibitor 30 min before FP-rhodamine (1 μM, 30 min), averages of three replicates, read-out: IC50 (KIAA1363)): 437 nM | IC50 (KIAA1363 [1]; screened against KIAA1363, Table 1, read-out: IC50 values of less than 1 micromolar): < 1000 nM | Cross-reactivity with AChE (AChE): little or no activity | Cross-reactivity with HSL (HSL): little or no activity

CC1=CC(C)=[N+]2C1=Cc1ccc(CCC(=O)NCCNC(=O)Oc3ccccc3C(C)C)n1[B-]2(F)F [JW576, 5,5-difluoro-7-(3-((2-(((2-isopropylphenoxy)carbonyl)amino)ethyl)amino)-3-oxopropyl)-1,3-dimethyl-5H-dipyrrolo[1,2-c:2′,1′-f][1,3,2]diazaborinin-4-ium-5-uide]
Labeling of KIAA1363 in heart (KIAA1363 [2]; C57BI/6J mice, 5-40 mg/kg, i.p., 4 hr): significant labeling | Time to near-maximal in vivo labeling signals (KIAA1363 [2]; JW576 10 mg/kg, post-dosing): ≤ 30 min | KIAA1363 activity in heart by competitive ABPP with FP-Rh (KIAA1363 [2]; WT mice, JW576 10 mg/kg, 1 hr): substantial reductions | Selectivity for KIAA1363 in vivo (heart proteome) (KIAA1363 [2]; additional 70 kDa protein, likely ES1): only a single, faint additional probe target | IC50 (KIAA1363 [3]): 340 ± 150 nM | Time to near-complete target modification (KIAA1363 [3]; JW576 1 μM, living PC3 cells): within an hour | Concentration at which other JW576-protein adducts were observed (trace levels) (KIAA1363 [3]; PC3 cells in situ, BODIPY fluorescence scan): ≥ 5 µM | IC50 (KIAA1363 [4]): 150 to 170 nM

CC(C)c1ccccc1OC(=O)NCCOc1ccc2c(C(F)(F)F)cc(=O)oc2c1 [JW551, 2-isopropylphenyl (2-((2-oxo-4-(trifluoromethyl)-2H-chromen-7-yl)oxy)ethyl)carbamate]
IC50 for inhibition of FP-rhodamine labeling of KIAA1363 (KIAA1363 [5]): low micromolar
